Results published in patent publication US5550119A, “Phosphono substituted tetrazole derivatives as ECE inhibitors” (Ciba-Geigy Corporation, priority 1995, dated 1996).
pIC50: −log10 of the molar value.

What was measured:
[1] = tested on: DOCA-salt hypertensive rats; test: antihypertensive effect in DOCA-salt hypertensive rats; assay type: in vivo, rat; conditions: 10 mg/Kg p.o., in PEG 400
Description: The antihypertensive effect can be determined in desoxycorticosterone acetate (DOCA)-salt hypertensive rats.
DOCA-salt hypertensive rats (280-380 g) are prepared by the standard method. Rats underwent a unilateral nephrectomy and one week later are implanted with silastic pellets containing 100 mg/kg of DOCA. The rats are maintained on 1% NaCl/0.2% KCl drinking water for three to five weeks until sustained hypertension is established. The antihypertensive activity is evaluated at this time.
Two days before an experiment, the rats are anesthetized with methoxyflurane and instrumented with catheters in the femoral artery to measure arterial blood pressure. Forty-eight hours later, baseline arterial pressure and heart rate are recorded during a 1 hour period. The test compound or vehicle is then administered and the same cardiovascular parameters are monitored for an additional 5 hours.

plasma ANF concentration = test: effect on rat plasma ANF concentration; assay type: in vivo, Male Sprague-Dawley rats; conditions: about 10 mg/kg p.o., in 10% ethanol/polyethylene glycol 400; ANF infused 450 ng/kg/min i.v.
Description: The effect of the compounds of the invention on rat plasma ANF concentration can be determined as follows:
Male Sprague-Dawley rats (275-390 g) are anesthetized with ketamine (150 mg/kg)/acepromazine (10%) and instrumented with catheters in the femoral artery and vein to obtain blood samples and infuse ANF, respectively. The rats are tethered with a swivel system and are allowed to recover for 24 hours before being studied in the conscious, unrestrained state.
In this assay, plasma ANF levels are determined in the presence and absence of NEP inhibition. On the day of study, all rats are infused continuously with ANF at 450 ng/kg/min. i.v. for the entire 5 hours of the experiment. Sixty minutes after beginning the infusion, blood samples for baseline ANF measurements are obtained (time 0) and the rats are then randomly divided into groups treated with the test compound or vehicle. Additional blood samples are taken 30, 60, 120, 180 and 240 minutes after administration of the test compound.
Plasma concentrations are determined by a specific radioimmunoassay. […] The supenatant is decanted and the pellets counted in a gamma counter. […] Plasma ANF levels are expressed as a percent of those measured in vehicle-treated animals which received ANF alone (450 ng/kg/min i.v.).

[2] = tested on: spontaneous hypertensive rats; test: mean arterial pressure of spontaneous hypertensive rats using telemetry; assay type: in vivo, rat; conditions: continuous infusion of 5 mg/Kg/day for 13 days, no exogenous big ET-1
[3] = target: T1, porcine endothelin converting enzyme (Sus scrofa, UniProt A0A8W4FBH0); test: in vitro inhibition of porcine endothelin-converting enzyme (ECE); assay type: biochemical; conditions: partially purified from porcine primary aortic endothelial cells
T1 construct: partially purified from porcine primary aortic endothelial cells by DE52 anion exchange column; endogenous in cells; host or cells: porcine primary aortic endothelial cells
T1 sequence (A0A8W4FBH0 1-751): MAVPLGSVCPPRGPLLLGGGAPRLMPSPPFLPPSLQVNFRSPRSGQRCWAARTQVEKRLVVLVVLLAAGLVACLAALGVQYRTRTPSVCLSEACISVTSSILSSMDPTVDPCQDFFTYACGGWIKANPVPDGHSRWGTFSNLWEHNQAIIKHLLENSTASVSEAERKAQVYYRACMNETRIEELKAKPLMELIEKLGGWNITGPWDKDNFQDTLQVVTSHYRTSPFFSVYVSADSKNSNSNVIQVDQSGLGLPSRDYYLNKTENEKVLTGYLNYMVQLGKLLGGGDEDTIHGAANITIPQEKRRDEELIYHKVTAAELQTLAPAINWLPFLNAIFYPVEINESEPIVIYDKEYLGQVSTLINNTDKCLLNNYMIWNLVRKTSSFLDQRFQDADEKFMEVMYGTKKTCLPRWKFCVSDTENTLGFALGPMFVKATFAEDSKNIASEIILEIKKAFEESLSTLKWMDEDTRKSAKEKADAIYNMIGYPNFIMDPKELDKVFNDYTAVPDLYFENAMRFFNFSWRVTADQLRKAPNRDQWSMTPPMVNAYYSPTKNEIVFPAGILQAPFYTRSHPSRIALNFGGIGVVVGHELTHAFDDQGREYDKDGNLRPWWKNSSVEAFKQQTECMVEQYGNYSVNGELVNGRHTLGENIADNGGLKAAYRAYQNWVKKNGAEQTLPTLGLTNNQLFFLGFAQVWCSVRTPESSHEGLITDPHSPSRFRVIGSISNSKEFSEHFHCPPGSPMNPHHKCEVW
Source text: Endothelin converting enzyme (ECE) is partially purified from porcine primary aortic endothelial cells by DE52 anion exchange column chromatrography and its activity is quantified by radioimmunoassay as described in Anal. Biochem. 213, 434-436 (1993). The ECE inhibition can be determined as described in Biochem. Mol. Biol. Int. 31, (5), 861-867 (1993), by radioimmunoassay to measure ET-1 formed from big ET-1.

[4] = tested on: big ET-1 induced pressor response; test: inhibition of big ET-1 induced pressor response in conscious spontaneously hypertensive rats (SHR); assay type: in vivo; conditions: continuous infusion of 5 mg/Kg/day; over 60 minutes; vs vehicle control
Description: ECE inhibition can also be determined in vivo by measuring the inhibition big ET-1 induced pressor response in conscious spontaneously hypertensive rats (SHR), e.g. as described in Biochem. Biophys. Res. Communic. 204, 407-412 (1994).
Male SHR (16-18 weeks of age) are administered either test compound or vehicle (1M NaHCO3) via an osmotic minipump implated subcutaneously. On day 5 femoral arterial and venous catheters are placed in anesthetized rats for the measurement of MAP (mean arterial pressure) and for test compound administration, respectively. After a 48 hour recovery period, MAP is recorded (day 7) through the arterial catheter connected to a pressure transducer. Blood pressure and heart rate are allowed to stabilize for 30 minutes before ganglion blockade is performed using chlorisondamine ([…] i.v.). Approximately 15 minutes later, a bolus dose of big ET-1 (0.25 nmol/kg i.v.) is administered to both vehicle- and test compound treated rats. The change in blood pressure in response to big ET-1 is then compared between the two groups of rats at 1, 5, 10, 15, 30 and 60 min after dosing using a two-way ANOVA.

Structure (SMILES)	blood pressure [1]	plasma ANF levels (plasma ANF concentration)	mean arterial pressure [2]	pIC50 [3]	reduction of big ET-1 induced pressor response [4]
O=P(CN[C@@H](Cc1ccc(-c2ccccc2)cc1)c1nnn[nH]1)(Oc1ccccc1)Oc1ccccc1	significant reduction in blood pressure	significant increases in plasma ANF levels			
O=P(O)(O)CN[C@@H](Cc1ccc(-c2ccccc2)cc1)c1nnn[nH]1 [(S)-[2-(Biphenyl-4-yl)-1-(1H-tetrazol-5-yl)-ethylamino]-methylphosphonic acid]			sustained reduction in the mean arterial pressure	~5.96	significant difference in reduction of big ET-1 induced pressor response
